Data set [1] is classed as physicochemical. How it is done: The solubility of a poorly soluble compound was measured by further adding a water-soluble macromolecule.
DKS Co. Ltd. • SBE-β-CD . . . MedChemExpress LLC • HP-β-CD . . . Fujifilm Wako Pure Chemical

How the values of data set [2] were obtained:
Fujifilm Wako Pure Chemical
The poorly soluble compound content in the recovered filtrate was measured by liquid chromatography specified below (Shimadzu (Kyoto), high performance liquid chromatograph Prominence).
As the standard product of triamcinolone acetonide, a reagent from the Pharmaceutical and Medical Device Regulatory Science Society of Japan (Japan) was used. • 50 μL of sample solution and standard solution was measured by liquid chromatography under the following conditions.
Column temperature: constant temperature of about 40° C. Mobile phase A: 0.1% trifluoroacetic acid/10% acetonitrile solution Mobile phase B: 0.1% trifluoroacetic acid/90% acetonitrile solution Delivery of mobile phase: the ratio of mixture of mobile phase A and mobile phase B was changed as follows to control the linear concentration gradient.
Detergent: 50% acetonitrile solution Flow rate: 1.0 mL/min Temperature within autosampler: 5° C.
The following conditions were tested as additives to a poorly soluble compound
wherein SA+B=solubility of a poorly soluble compound in a composition comprising poloxamer 407 and PEG 4000 SB=solubility of a poorly soluble compound in a composition comprising PEG 4000, but not poloxamer 407 SA=solubility of a poorly soluble compound in a composition comprising poloxamer 407, but not PEG 4000 S0=solubility of a poorly soluble compound in a composition that comprises neither poloxamer 407 nor PEG 4000.
The solubility in a composition of PEG and poloxamer was measured in the same manner described above for additional compounds.
For cabozantinib and telmisartan, the pH of the aqueous solution with the base composition described above was changed to 7.4. For rebamipide, the aqueous solution with the base composition was as follow. • 0.05% sodium hydrogen phosphate hydrate • 0.45% sodium dihydrogen phosphate hydrate • sodium hydroxide and hydrochloric acid (suitable amount was added to adjust the pH to 6.0)
Additional compounds were measured in the same manner described above.
Cabozantinib and telmisartan were tested with a solution adjusted to a pH of 7.4. Rebamipide was tested with a solution adjusted to a pH of 6.0. Other compounds were tested with a solution adjusted to a pH of 7.0.

A short description of data set [3]: Basic solubility at 25° C. in ethanol, PEG 400, propylene glycol (PG) and buffer solution; solubility ratio non-aqueous solvent / buffer solution. Conditions: for Solubility ratio of solvent with respect to buffer solution Ethanol/buffer solution / Solubility ratio of solvent with respect to buffer solution PEG400/buffer solution / Solubility ratio of solvent with respect to buffer solution PG/buffer solution: buffer pH 7.0 (pH 7.4 for cabozantinib and telmisartan; pH 6.0 for rebamipide). How it is done: In this regard, the buffer solution had the following composition: • 0.2% sodium hydrogen phosphate hydrate • 0.3% sodium dihydrogen phosphate hydrate • sodium hydroxide and hydrochloric acid (suitable amount was added to adjust the pH to 7.0; however, pH was adjusted to 7.4 for cabozantinib and telmisartan).
However, the following composition was used for rebamipide instead: • 0.05% sodium hydrogen phosphate hydrate • 0.45% sodium dihydrogen phosphate hydrate • sodium hydroxide and hydrochloric acid (suitable amount was added to adjust the pH to 6.0).
Each compound was measured in the same manner described above. In the Table, the molecular weight and Log P values are reference values (or values calculated from reference values).

The conditions of data set [4]: reference values; pH upon measurement: rebamipide pH 7.0, telmisartan pH 7.4, cilostazol pH 7.0, aprepitant pH 7, cabozantinib pH 7.4; cited from earlier work.

Where two headings read alike, the source gives them in different places.

These results are taken from patent US20230102590A1, “USE OF POLYETHER COMPOUND” (Senju Pharmaceutical Co., Ltd., priority 2020, published 2023).

As for carboxymethyl cellulose [CMC], in data set [1], the “effect of the addition on solubility of celecoxib in PEG/poloxamer composition” value (from here on “effect … in PEG/poloxamer composition”) is “improved solubility overall”; the “effect on dissolution of a poorly soluble compound due to poloxamer 407 and PEG 4000” value is “tendency to further assist dissolution”.
For the compound “sulfobutylether-β-cyclodextrin [SBE-β-CD]”, in data set [1], the “effect … in PEG/poloxamer composition” value is “improved solubility overall”; the “effect on dissolution of a poorly soluble compound due to poloxamer 407 and PEG 4000” value is recorded as “further improved the dissolution”.
On to `CC1(C)O[C@@H]2C[C@H]3[C@@H]4C[C@H](F)C5=CC(=O)C=C[C@]5(C)[C@@]4(F)[C@@H](O)C[C@]3(C)[C@]2(C(=O)CO)O1` [Fluocinolone acetonide], for which, in data set [2], the “Solubility scale factor at 5° C. 30% PEG 4000/10% poloxamer 407” value is 19.75 and the “Solubility scale factor at 15° C. 30% PEG 4000/10% poloxamer 407” value was 18.27. Further, in data set [3] (25° C.), the “Solubility, Ethanol” value is given as 4.635%; the “Solubility, PG (propylene glycol)” value stood at 3.224%; the “Solubility ratio of solvent with respect to buffer solution Ethanol/buffer solution” value came out at 2685.78; the “Solubility ratio of solvent with respect to buffer solution PEG400/buffer solution” value turned out to be 1803.78. Besides, the “Solubility ratio of solvent with respect to buffer solution PG/buffer solution” value in data set [3] (25° C.) was found to be 2007.24. Besides, the “Log P” value in data set [4] is given as 2.48.
For `CCCc1nc2c(C)cc(-c3nc4ccccc4n3C)cc2n1Cc1ccc(-c2ccccc2C(=O)O)cc1` [Telmisartan], in data set [2], the “Solubility scale factor at 5° C. 30% PEG 4000/10% poloxamer 407” value is 2.03 and the “Solubility scale factor at 15° C. 30% PEG 4000/10% poloxamer 407” value stood at 1.71. In addition, in data set [3] (25° C.), the “Solubility ratio of solvent with respect to buffer solution Ethanol/buffer solution” value turned out to be 287.77, the “Solubility ratio of solvent with respect to buffer solution PEG400/buffer solution” value came to 431.18 and the “Solubility ratio of solvent with respect to buffer solution PG/buffer solution” value stood at 120.32. The “Log P” value in data set [4] is 3.2.
Regarding hydroxypropyl-β-cyclodextrin [HP-β-CD], the “effect … in PEG/poloxamer composition” value in data set [1] was “hardly improved the solubility”.
As to `O=C1CCc2cc(OCCCCc3nnnn3C3CCCCC3)ccc2N1` [Cilostazol], in data set [2], the “Solubility scale factor at 5° C. 30% PEG 4000/10% poloxamer 407” value worked out at 8.97 and the “Solubility scale factor at 15° C. 30% PEG 4000/10% poloxamer 407” value stood at 10.22. Besides, in data set [3] (25° C.), the “Solubility, PEG400” value is 0.4342%; the “Solubility ratio of solvent with respect to buffer solution Ethanol/buffer solution” value is given as 761.36; the “Solubility ratio of solvent with respect to buffer solution PEG400/buffer solution” value was determined as 1146.93; the “Solubility ratio of solvent with respect to buffer solution PG/buffer solution” value is 761.23. Moreover, the “Log P” value in data set [4] is recorded as 2.76.
In the case of `O=C(NC(Cc1cc(=O)[nH]c2ccccc12)C(=O)O)c1ccc(Cl)cc1` (stereo not shown) [Rebamipide], in data set [2], the “Solubility scale factor at 5° C. 30% PEG 4000/10% poloxamer 407” value is 1.13, the “Solubility scale factor at 15° C. 30% PEG 4000/10% poloxamer 407” value is reported as 1.07 and the “solubilization of compound due to poloxamer 407 by an addition of PEG 4000” value is “lowest”. Further, in data set [3] (25° C.), the “Solubility, Ethanol” value was 0.06615%; the “Solubility ratio of solvent with respect to buffer solution Ethanol/buffer solution” value came out at 2.67; the “Solubility ratio of solvent with respect to buffer solution PEG400/buffer solution” value was 5.41; the “Solubility ratio of solvent with respect to buffer solution PG/buffer solution” value is given as 4.88. In data set [3] (25° C., phosphate buffer adjusted to pH 6.0 (rebamipide)), the “Solubility, Buffer solution” value came out at 0.02473%. Further, the log partition coefficient (Log P) in data set [4] is on record as −0.22.
Regarding `O=C1Nc2ccc(Cl)cc2[C@@](C#CC2CC2)(C(F)(F)F)O1` [Efavirenz], in data set [2], the “state of the test composition” value is recorded as “converted into gel”. The “Solubility, PG (propylene glycol)” value in data set [3] (25° C.) is listed as 48.3%. In addition, the “Solubility, Buffer solution” value in data set [3] (25° C., phosphate buffer pH 7.0) is listed as 0.0007278%. Also, in data set [4], the log partition coefficient (Log P) is given as 5.40.
As to `C[C@@H](O[C@H]1OCCN(Cc2n[nH]c(=O)[nH]2)[C@H]1c1ccc(F)cc1)c1cc(C(F)(F)F)cc(C(F)(F)F)c1` [Aprepitant], in data set [2], the “Solubility scale factor at 5° C. 30% PEG 4000/10% poloxamer 407” value is 1377.77 and the “Solubility scale factor at 15° C. 30% PEG 4000/10% poloxamer 407” value is on record as 236.00. Further, the “Solubility, Ethanol” value in data set [3] came out at 2.483%. Moreover, in data set [3] (25° C.), the “Solubility ratio of solvent with respect to buffer solution Ethanol/buffer solution” value is 129308.39, the “Solubility ratio of solvent with respect to buffer solution PEG400/buffer solution” value amounted to 60601.21 and the “Solubility ratio of solvent with respect to buffer solution PG/buffer solution” value was 43995.44. The lipophilicity (Log P) in data set [4] was 4.8 ± 0.1.
Take `COc1cc2nccc(Oc3ccc(NC(=O)C4(C(=O)Nc5ccc(F)cc5)CC4)cc3)c2cc1OC` [Cabozantinib]: in data set [2], the “Solubility scale factor at 5° C. 30% PEG 4000/10% poloxamer 407” value is 288.38 and the “Solubility scale factor at 15° C. 30% PEG 4000/10% poloxamer 407” value stood at 74.57. Moreover, in data set [3] (25° C.), the “Solubility ratio of solvent with respect to buffer solution Ethanol/buffer solution” value came to 1949439.39, the “Solubility ratio of solvent with respect to buffer solution PEG400/buffer solution” value is recorded as 25935652.78 and the “Solubility ratio of solvent with respect to buffer solution PG/buffer solution” value is given as 1213400.25. The “Log P” value in data set [4] is on record as 3.92.

Broadly, the Log P is a log measure of how a compound divides between an organic and an aqueous phase.
